In brackets after ≈: the same amount, converted by molar mass.
Test system: P388 mouse leukemia cells
Experiment: Activity against tumor cell growth (P388, MTT, 72 h)
Format: cell-based
Conditions: P388 mouse leukemia cells, 72 h, 37° C., MTT; read-out: IC50 (50% growth inhibition concentration)
Protocol: Using a culture medium RPMI1640 supplemented with 10% inactivated bovine fetal serum, 2 mM glutamine, 100 μ/ml kanamycin sulfate, and 5 μM 2-hydroxyethyldisulfide (This culture medium is hereinafter referred to simply as "culture medium"), P388 mouse leukemia cells were diluted to a concentration of 1.5×10^5 cells/ml in the culture medium, and were placed in each well of 96-well multiplate in 60 μl portions. Separately, the test compound was dissolved in dimethylsulfoxide and was adequately diluted with the culture medium. The diluted solution containing test compound was added to the wells of the above plate respectively in 60 μl portions. Then the cells were incubated in a CO2 -incubator (5% CO2, 37° C.) for 72 hours.
The surviving cell numbers were measured according to the Mosmann's method (J. Immunol. Meth., 65 55-63, 1983) as follows. A 2.5 mg/ml solution of MTT (3-[4,5-dimethylthiazol-2-yl]-2,5-diphenyltetrazolium bromide) in Dulbecco's phosphate buffer solution (PBS) was prepared and added to each of the wells by 20 μl. The cells were further incubated for 3 hours. A 150 μl portion of 0.04N hydrochloric acid-isopropanol solution was added to each of the wells, and MTT-formazane formed was allowed to dissolve by pipetting. The absorbance of the solutions was measured at 540 nm taking the no-cell-containing [solution as the background. The 50% growth inhibition concentration (ICs50) was calculated from ratio of the absorbances of the treated samples to the absorbance of the no-medicine-treated sample, and from the concentration of the test compound.

How did the IC50 turn out when `COC(=O)c1c(C(F)(F)F)[nH]c2c(O)cc3c(c12)C(CCl)CN3C(=O)c1cc2cc(NC(=O)c3cc4ccccc4[nH]3)ccc2[nH]1` (centres unmarked) [Example 9, Methyl 1-chloromethyl-5-hydroxy-3-[5-[(1H-indol-2-ylcarbonyl)amino]-1H-indol-2-ylcarbonyl]-7-trifluoromethyl-1,2,3,6-tetrahydropyrrolo[3,2-e]indole-8-carboxylate] was run?
Its IC50 is 0.76 ng/mL (≈ 1.17 nM).

With `COC(=O)c1c(C(F)(F)F)[nH]c2c1C13CC1CN(C(=O)c1cc4cc(NC(=O)c5cc6cccc(OC)c6o5)ccc4[nH]1)C3=CC2=O` (centres unmarked) [Example 25, Methyl 2-[5-[(7-methoxybenzofuran-2-ylcarbonyl)amino]-1H-indol-2-ylcarbonyl]-6-trifluoromethyl-1,2,8,8a-tetrahydrocyclopropa[c]pyrrolo[3,2-e]indole-4 (5H)-one-7-carboxylate] as the compound, how does the IC50 read?
Its IC50 is 0.63 ng/mL (≈ 0.977 nM).

How did the IC50 turn out when `COC(=O)c1c(C(F)(F)F)[nH]c2c1C13CC1CN(C(=O)c1cc4cc(NC(=O)c5ccc6ccccc6c5)ccc4[nH]1)C3=CC2=O` (centres unmarked) [Example 29, Methyl 3-[5-[(naphthalene-3-ylcarbonyl)amino]1H-indol-2-ylcarbonyl]-6-trifluoromethyl-1,2,8,8a-tetrahydrocyclopropa[c]pyrrolo[3,2-e]indol-4 (5H)-one-7-carboxylate] was run?
The IC50 was 1.2 ng/mL (≈ 1.92 nM).

With `COC(=O)c1c(C(F)(F)F)[nH]c2c1C13CC1CN(C(=O)c1cc4cc(NC(=O)c5cnc6ccccc6c5)ccc4[nH]1)C3=CC2=O` (centres unmarked) [Example 30, Methyl 3-[5-[(quinoline-3-ylcarbonyl)amino]-1H-indol-2-ylcarbonyl]-6-trifluoromethyl-1,2,8,8a-tetrahydrocyclopropa[c]pyrrolo[3,2-e]indol-4 (5H)-one-7-carboxylate] as the compound, how does the IC50 read?
The IC50 was 0.22 ng/mL (≈ 0.352 nM).

With `COC(=O)c1c(C(F)(F)F)[nH]c2c1C13CC1CN(C(=O)c1cc4cc(NC(=O)c5cc6c(cn5)[nH]c5ccccc56)ccc4[nH]1)C3=CC2=O` (centres unmarked) [Example 33, Methyl 2-[5-[(9H-pyrido[3,4-b]indol-3-ylcarbonyl)amino]-1H-indol-2-ylcarbonyl]-6-trifluoromethyl-1,2,8,8a-tetrahydrocyclopropa[c]pyrrolo[3,2-e]indol-4 (5H)-one-7-carboxylate] as the compound, how does the IC50 read?
Its IC50 is 0.17 ng/mL (≈ 0.256 nM).

`COC(=O)c1c(C(F)(F)F)[nH]c2c(O)cc3c(c12)C(CBr)CN3C(=O)c1cc2cc(NC(=O)c3cc4cc(OC)c(OC)c(OC)c4[nH]3)ccc2[nH]1` (centres unmarked) [Example 39, Methyl 1-bromomethyl-5-hydroxy-7-trifluoromethyl-3-[5[(5,6,7-trimethoxy1H-indol-2-ylcarbonyl)amino]-1H-indol-2-ylcarbonyl]-1,2,3,6-tetrahydropyrrolo[3,2-e]indole-8-carboxylate] was tested. Which IC50 did it give?
Its IC50 is 0.2 ng/mL (≈ 0.255 nM).

`COC(=O)c1c(C(F)(F)F)[nH]c2c(O)cc3c(c12)C(CBr)CN3C(=O)c1cc2cc(NC(=O)c3cc4c(OC)c(OC)c(OC)cc4[nH]3)ccc2[nH]1` (centres unmarked) [Example 40, Methyl 1-bromomethyl-5-hydroxy-7-trifluoromethyl-3-[5-[(4,5,6-trimethoxy1H-indol-2-ylcarbonyl)amino]-1H-indol-2-ylcarbonyl]-1,2,3,6-tetrahydropyrrolo[3,2-e]indole-8-carboxylate] was tested. Which IC50 did it give?
Its IC50 is 0.08 ng/mL (≈ 0.102 nM).

Which IC50 does the source give for `COC(=O)c1c(C(F)(F)F)[nH]c2c(O)cc3c(c12)C(CBr)CN3C(=O)c1cc2cc(NC(=O)c3ccc4ccccc4c3)ccc2[nH]1` (centres unmarked) [Example 41, Methyl 1-bromomethyl-5-hydroxy-3-[5-[(naphthalene-3-ylcarbonyl)amino]-1H-indol-2-ylcarbonyl]-7-trifluoromethyl-1,2,3,6-tetrahydropyrrolo[3,2-e]indole-8-carboxylate] here?
The IC50 was 1.6 ng/mL (≈ 2.27 nM).

For `COC(=O)c1c(C(F)(F)F)[nH]c2c(O)cc3c(c12)C(CBr)CN3C(=O)c1cc2cc(NC(=O)c3cnc4ccccc4c3)ccc2[nH]1` (centres unmarked) [Example 42, Methyl 1-bromomethyl-5-hydroxy-3-[5-[(quinoline-3-ylcarbonyl)amino]-1H-indol-2-ylcarbonyl]-7-trifluoromethyl-1,2,3,6-tetrahydropyrrolo[3,2-e]indole-8-carboxylate], which IC50 is on record?
The IC50 was 0.13 ng/mL (≈ 0.184 nM).

With `COC(=O)c1c(C(F)(F)F)[nH]c2c(O)cc3c(c12)C(CBr)CN3C(=O)c1cc2cc(NC(=O)c3cc4c(OC)c(OC)c(OC)cc4cn3)ccc2[nH]1` (centres unmarked) [Example 44, Methyl 1-bromomethyl-5-hydroxy-7-trifluoromethyl-3-[5-[(5,6,7-trimethoxyisoquinolin-3-ylcarbonyl)amino]-1H-indol-2-ylcarbonyl]-1,2,3,6-tetrahydropyrrolo[3,2-e]indole-8-carboxylate] as the compound, how does the IC50 read?
Its IC50 is 0.07 ng/mL (≈ 0.0879 nM).

Which IC50 does the source give for `COC(=O)c1c(C(F)(F)F)[nH]c2c(O)cc3c(c12)C(CBr)CN3C(=O)c1cc2cc(NC(=O)c3cc4c(cn3)[nH]c3ccccc34)ccc2[nH]1` (centres unmarked) [Example 45, Methyl 1-bromomethyl-5-hydroxy-3-[5-[(9H-pyrido[3,4-b]indol-3-ylcarbonyl)amino]-1H-indol-2-ylcarbonyl]-7-trifluoromethyl-1,2,3,6-tetrahydropyrrolo[3,2-e]indole-8-carboxylate] here?
The IC50 was 0.12 ng/mL (≈ 0.161 nM).

For `COC(=O)c1c(C(F)(F)F)[nH]c2c(O)cc3c(c12)[C@H](CCl)CN3C(=O)c1cc2cc(NC(=O)OC(C)(C)C)ccc2[nH]1` [Example 64, Methyl (1S)-3-[5-(t-butoxycarbonyl)amino-1H-indol-2-ylcarbonyl]-1-chloromethyl-5-hydroxy-7-trifluoromethyl-1,2,3,6-tetrahydropyrrolo[3,2-e]indole-8-carboxylate], which IC50 is on record?
The IC50 was 3.9 ng/mL (≈ 6.43 nM).

With `COC(=O)c1c(C(F)(F)F)[nH]c2c(O)cc3c(c12)[C@H](CCl)CN3C(=O)c1cc2cc(NC(=O)CN(C)C)ccc2[nH]1` [Example 65, Methyl (1S)-1-chloromethyl-3-[5 (dimethylaminomethylcarbonyl)amino-1H-indol-2-ylcarbonyl]-5-hydroxy-7-trifluoromethyl-1,2,3,6-tetrahydropyrrolo[3,2-e]indole-8-carboxylate] as the compound, how does the IC50 read?
The IC50 was 0.11 ng/mL (≈ 0.186 nM).

`COC(=O)c1c(C(F)(F)F)[nH]c2c(O)cc3c(c12)[C@H](CCl)CN3C(=O)c1cc2c(OC)cccc2o1` [Example 66, Methyl (1S)-1-chloromethyl-5-hydroxy-3-(4-methoxybenzofuran-2-ylcarbonyl)-7-trifluoromethyl-1,2,3,6-tetrahydropyrrolo[3,2-e]indole-8-carboxylate] was tested. Which IC50 did it give?
Its IC50 is 0.77 ng/mL (≈ 1.47 nM).

`COC(=O)c1c(C(F)(F)F)[nH]c2c(O)cc3c(c12)[C@H](CCl)CN3C(=O)c1cc2cc(OC)ccc2o1` [Example 67, Methyl (1S)-1-chloromethyl-5-hydroxy-3-(5-methoxybenzofuran-2-ylcarbonyl)-7-trifluoromethyl-1,2,3,6-tetrahydropyrrolo[3,2-e]indole-8-carboxylate] was tested. Which IC50 did it give?
Its IC50 is 0.026 ng/mL (≈ 0.0497 nM).

How did the IC50 turn out when `COC(=O)c1c(C(F)(F)F)[nH]c2c(O)cc3c(c12)[C@H](CCl)CN3C(=O)c1cc2ccc(OC)cc2o1` [Example 68, Methyl (1S)-1-chloromethyl-5-hydroxy-3-(6-methoxybenzofuran-2-ylcarbonyl)-7-trifluoromethyl-1,2,3,6-tetrahydropyrrolo[3,2-e]indole-8-carboxylate] was run?
The IC50 was 0.051 ng/mL (≈ 0.0975 nM).

`COC(=O)c1c(C(F)(F)F)[nH]c2c(O)cc3c(c12)[C@H](CCl)CN3C(=O)c1cc2cc(OC)c(OC)c(OC)c2o1` [Example 69, Methyl (1S)-1-chloromethyl-5-hydroxy-7-trifluoromethyl-3-(5,6,7-trimethoxybenzofuran-2-ylcarbonyl)-1,2,3,6-tetrahydropyrrolo[3,2-e]indole-8-carboxylate] was tested. Which IC50 did it give?
The IC50 was 0.046 ng/mL (≈ 0.0789 nM).

From US5629430A, “Trifluoromethylpyrroloindolecarboxylic acid ester and process for production thereof” (Kyorin Pharmaceutical Co., Ltd., priority 1992, dated 1997)
